Assay results published in paper PMC8998611, “Identification of Novel GSK-3β Hits Using Competitive Biophysical Assays” (International Journal of Molecular Sciences, 2022).

How the values were obtained:
p70S6K = target: T1, p70S6K (Homo sapiens, UniProt P23443); experiment: Eurofins Kinase Diversity Panel, p70S6K; assay type: biochemical; settings: 20 µM compound; ATP at Km ± 15 µM; read-out: inhibitory effect on p70S6K
T1 construct: purchased Eurofins (Kinase Diversity Panel service)
Procedure: (§1) To further characterize the inhibitory activity of the two selected fragments, the selectivity of G5 and G12 towards a panel of 58 kinases of the humane proteome was evaluated using the “Kinase screening and profiling” service of Eurofins, Luxembourg (Kinase Diversity Panel). […] Results are reported in Supplementary Figures S2 and S3.

SAPK2a = target: T2, SAPK2a (Homo sapiens, UniProt Q16539); experiment: Eurofins Kinase Diversity Panel, SAPK2a; assay type: biochemical; settings: 20 µM compound, ATP at Km ± 15 µM
T2 construct: purchased Eurofins (Kinase Diversity Panel service)
T2 sequence (Q16539 whole entry): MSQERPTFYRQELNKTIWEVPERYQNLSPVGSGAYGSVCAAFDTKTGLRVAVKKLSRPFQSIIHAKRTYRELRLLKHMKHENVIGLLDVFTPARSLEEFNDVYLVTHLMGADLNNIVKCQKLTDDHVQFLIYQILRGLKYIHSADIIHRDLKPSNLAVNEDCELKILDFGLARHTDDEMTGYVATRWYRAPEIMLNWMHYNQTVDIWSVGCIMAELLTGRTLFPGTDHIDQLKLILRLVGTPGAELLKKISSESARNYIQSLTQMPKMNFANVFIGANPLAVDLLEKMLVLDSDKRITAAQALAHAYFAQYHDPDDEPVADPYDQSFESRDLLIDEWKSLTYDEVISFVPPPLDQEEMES
Procedure: as §1

GSK-3β [1] = target: T3, GSK-3β (Homo sapiens, UniProt P49841); experiment: GSK-3β kinetics, Lineweaver-Burk analysis of competition with ATP or substrate ULight-GS; assay type: biochemical; parameters: made in house; host or cells: Sf9 cells; settings: compound 20 and 50 μM; for mechanism of inhibition with respect to substrate ULight-GS: ATP 1 μM, ULight-GS 12.5-200 nM; for mechanism of inhibition with respect to ATP: ATP 0.25-4 μM, ULight-GS 50 nM
T3 sequence (P49841 whole entry): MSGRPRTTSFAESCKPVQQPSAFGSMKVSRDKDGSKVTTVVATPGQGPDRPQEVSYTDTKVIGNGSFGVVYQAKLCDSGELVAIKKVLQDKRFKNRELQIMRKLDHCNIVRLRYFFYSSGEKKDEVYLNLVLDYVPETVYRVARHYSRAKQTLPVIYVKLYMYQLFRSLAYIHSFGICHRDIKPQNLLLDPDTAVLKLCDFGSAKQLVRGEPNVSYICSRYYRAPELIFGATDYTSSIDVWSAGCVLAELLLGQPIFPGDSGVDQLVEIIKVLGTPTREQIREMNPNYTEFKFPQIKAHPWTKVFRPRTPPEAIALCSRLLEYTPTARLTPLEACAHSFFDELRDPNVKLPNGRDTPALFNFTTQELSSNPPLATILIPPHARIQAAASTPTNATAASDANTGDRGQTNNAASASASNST
Procedure: First, under a constant concentration of the substrate ULight-GS (50 nM), ATP concentrations were varied from 0.25 to 4 μM, and G5 and G12 were tested at 20 and 50 μM. […] Additionally, G5 and G12 (at 20 and 50 μM) were tested by keeping the ATP concentration constant (1 μM) and varying the substrate ULight-GS concentration from 12.5 to 200 nM.
To study the GSK-3β kinetics, the reaction mixture, varying concentrations of ATP (0.25–0.5–1–2–4 μM) or substrate (12.5–25–50–100–200 nM) versus test samples (20 and 50 μM), were incubated for 5, 15, 30, and 60 min at 23 °C, followed by the addition of the 6 mM EDTA and the anti-phospho-GS antibody according to the manufacturer’s protocol.
For GSK-3β kinetic experiments, initial velocities (V0) were determined and fitted to the Michaelis–Menten equation. To directly visualize G5 and G12 inhibition mode, a Lineweaver–Burk plot was generated according to the values obtained from the Michaelis–Menten analysis. […] Graphs and data analysis were performed using GraphPad Prism 8 software.

GSK-3β [2] = target: T3, GSK-3β; experiment: Thermal shift assay with SYPRO Orange; assay type: binding; parameters: made in house; host or cells: Sf9 cells; settings: GSK-3β 5 μM; normalized to DMSO effect
Procedure: Given the poor inhibitory activity of compounds B3 and E2, only G5 and G12 were selected for further biophysical and structural investigations. […] A Tm increase of 3.2 °C and 2.5 °C was observed upon binding of G5 and G12, respectively. Reported effects were compared and normalized to the effect induced by DMSO alone on GSK-3β denaturation. The same experiments were also performed in the presence of AMP-PNP to unravel a possible effect of this molecule on protein denaturation.
Thermal shift experiments were conducted in technical triplicates and recorded with a ViiA7^TM real-time PCR instrument. The analysis protocol of Partch and colleagues developed for fast stability screening of buffers and interactors for recombinant proteins was followed, [42]. Briefly, the recombinant protein GSK-3β at a final concentration of 5 μM was mixed with the dye SYPRO Orange (2× final concentrated) in the selected assay buffer (NaCl 300 mM, Hepes pH 7.5 20 mM, MgCl2 5 mM, DTT 1 mM) and incubated with hit compounds at two different concentrations, 200 and 500 μM. Experiments were also performed on GSK-3β also in the presence of AMP-PNP at a final concentration of 200 μM. […]
Output data were collected and analyzed with Excel software and Graphpad Prism 7.

GSK-3β [3] = target: T3, GSK-3β; experiment: 19F T2 filter NMR ligand-based binding experiments; parameters: made in house; host or cells: Sf9 cells; settings: in presence of GSK-3β and 1 mM or 3 mM AMP-PNP
Procedure: GSK-3β was pre-incubated at room temperature for 10 min in the presence of 1 mM AMP-PNP before addition to the mixtures. […] On the contrary, NMR signals of the non-binding molecules were not affected by the presence of the target protein. Molecules selected from this first NMR screening were then tested as a single compound under the same screening conditions in the presence of two non-binding compounds as negative controls. The promising compounds, still showing binding to GSK-3β when tested as singles, were retested also in the presence of 3 mM AMP-PNP (among these, G5 and G12, whose NMR spectra are reported in Figure 2a,b, respectively). […] These hits were then further analyzed and characterized through different biophysical approaches.
All NMR screening experiments were recorded at 298 K with a Bruker FT NMR Avance III 600 MHz spectrometer, equipped with a 5 mm CryoProbe™ QCI ^1H/^19F–^13C/^15N–D with an automatic sample changer SampleJet™ with temperature control. All GSK-3β experiments were performed at low enzyme concentration (750 nM/1 μM) in 60 mM Hepes pH 7.5, 25 mM NaCl, 10 mM MgCl2, 2 mM TCEP, 8% D2O (for lock signal), 0.003% Triton X-100 (for the coating of NMR tube wall). […]

T1 sequence (P23443 whole entry): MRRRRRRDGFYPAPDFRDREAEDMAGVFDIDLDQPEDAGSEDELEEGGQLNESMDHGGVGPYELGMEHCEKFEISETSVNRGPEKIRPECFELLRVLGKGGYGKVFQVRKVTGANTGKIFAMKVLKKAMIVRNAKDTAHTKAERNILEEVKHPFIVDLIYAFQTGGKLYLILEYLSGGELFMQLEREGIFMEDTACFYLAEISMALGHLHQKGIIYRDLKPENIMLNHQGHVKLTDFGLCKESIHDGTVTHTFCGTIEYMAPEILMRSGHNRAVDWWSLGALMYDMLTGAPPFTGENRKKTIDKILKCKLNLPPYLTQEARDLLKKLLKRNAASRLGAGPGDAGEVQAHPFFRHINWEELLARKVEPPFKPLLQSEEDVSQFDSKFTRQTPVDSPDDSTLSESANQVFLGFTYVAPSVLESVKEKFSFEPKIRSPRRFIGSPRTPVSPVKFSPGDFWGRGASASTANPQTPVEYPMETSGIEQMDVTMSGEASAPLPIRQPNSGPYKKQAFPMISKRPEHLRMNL

Structure (SMILES)	inhibition at 20 µM (p70S6K)	inhibition at 20 µM (SAPK2a; read-out: inhibitory effect on SAPK2a)	mechanism of inhibition with respect to substrate ULight-GS (GSK-3β [1])	mechanism of inhibition with respect to ATP (GSK-3β [1])	Tm increase upon binding (GSK-3β [2])	binding by 19F T2 filter NMR (line broadening of signal) (GSK-3β [3])	inhibitory effect on SAPK2a (SAPK2a)
CS(=O)(=O)N1CC(c2nc(N)ncc2-c2ccc(F)cc2)C1 [G5]	26%	19%	mixed competition mechanism	ATP competitive	3.2 °C	strong line broadening	
O=C(Nc1ccccn1)C1CCN(C(=O)CCc2ccccc2F)C1 (stereo not drawn) [G12]	15%		did not compete with the substrate	ATP competitive	2.5 °C	strong line broadening	no inhibitory effect
